Measurements from PubChem BioAssay (NCI).
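Five concentrations, 48 hours, 96-well plates. The concentration for 50% growth inhibition is given as GI50. TGI: concentration producing complete growth inhibition.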

Experiments:
Assay in all cases: DTP human tumour cell line panel, 48 h
NCI/ADR-RES ovarian = system: NCI/ADR-RES ovarian
U251 CNS = system: U251 CNS
SF-295 CNS = system: SF-295 CNS
HT29 colon = system: HT29 colon
OVCAR-4 ovarian = system: OVCAR-4 ovarian
NCI-H522 lung = system: NCI-H522 lung
NCI-H460 lung = system: NCI-H460 lung
UACC-62 melanoma = system: UACC-62 melanoma
HS 578T breast = system: HS 578T breast
CCRF-CEM leukemia = system: CCRF-CEM leukemia
SF-268 CNS = system: SF-268 CNS
MDA-MB-435 = system: MDA-MB-435
786-0 renal = system: 786-0 renal
SW-620 colon = system: SW-620 colon
SN12C renal = system: SN12C renal
OVCAR-8 ovarian = system: OVCAR-8 ovarian
COLO 205 colon = system: COLO 205 colon
RPMI-8226 leukemia = system: RPMI-8226 leukemia
UO-31 renal = system: UO-31 renal
IGROV1 ovarian = system: IGROV1 ovarian
TK-10 renal = system: TK-10 renal
BT-549 breast = system: BT-549 breast
T-47D breast = system: T-47D breast
SF-539 CNS = system: SF-539 CNS
NCI-H226 lung = system: NCI-H226 lung
MDA-MB-231 breast = system: MDA-MB-231 breast
HCT-15 colon = system: HCT-15 colon
KM12 colon = system: KM12 colon
OVCAR-3 ovarian = system: OVCAR-3 ovarian
ACHN renal = system: ACHN renal
A549 NSCLC = system: A549 NSCLC
SNB-75 CNS = system: SNB-75 CNS
MOLT-4 leukemia = system: MOLT-4 leukemia
PC-3 prostate = system: PC-3 prostate
HCC-2998 colon = system: HCC-2998 colon
K-562 leukemia = system: K-562 leukemia
CAKI-1 renal = system: CAKI-1 renal
SR leukemia = system: SR leukemia
MDA-MB-468 breast = system: MDA-MB-468 breast
MALME-3M melanoma = system: MALME-3M melanoma
DU-145 prostate = system: DU-145 prostate
NCI-H23 lung = system: NCI-H23 lung
SNB-19 CNS = system: SNB-19 CNS
HCT-116 colon = system: HCT-116 colon
UACC-257 melanoma = system: UACC-257 melanoma
SK-OV-3 ovarian = system: SK-OV-3 ovarian
HOP-62 NSCLC = system: HOP-62 NSCLC
A498 renal = system: A498 renal
EKVX NSCLC = system: EKVX NSCLC
LOX IMVI melanoma = system: LOX IMVI melanoma
HL-60(TB) leukemia = system: HL-60(TB) leukemia
SK-MEL-5 melanoma = system: SK-MEL-5 melanoma
SK-MEL-2 melanoma = system: SK-MEL-2 melanoma
MCF7 breast = system: MCF7 breast
M14 melanoma = system: M14 melanoma
HOP-92 NSCLC = system: HOP-92 NSCLC

How did the GI50 (NCI/ADR-RES ovarian) turn out when O=C1NC(=O)c2c1c1c3cc(Br)ccc3[nH]c1c1oc3ccc(F)cc3c21 was run?
The GI50 was 3.43 µM.

What about the TGI (NCI/ADR-RES ovarian) of the same compound?
Its TGI is greater than 100 µM.

And the GI50 (U251 CNS)?
Its GI50 is 1.73 µM.

What about the TGI (U251 CNS) of the same compound?
Its TGI is 3.87 µM.

And the GI50 (SF-295 CNS)?
The GI50 was 5.95 µM.

What about the TGI (SF-295 CNS) of the same compound?
Its TGI is greater than 100 µM.

And the GI50 (HT29 colon)?
Its GI50 is 3.59 µM.

What about the TGI (HT29 colon) of the same compound?
The TGI was greater than 100 µM.

What about the GI50 (OVCAR-4 ovarian) of the same compound?
The GI50 was 1.55 µM.

And the TGI (OVCAR-4 ovarian)?
The TGI was 3.33 µM.

And the GI50 (NCI-H522 lung)?
The GI50 was 1.42 µM.

And the TGI (NCI-H522 lung)?
Its TGI is 3.31 µM.

What about the GI50 (NCI-H460 lung) of the same compound?
Its GI50 is 1.46 µM.

And the TGI (NCI-H460 lung)?
The TGI was 3.32 µM.

What about the GI50 (UACC-62 melanoma) of the same compound?
The GI50 was 1.39 µM.

What about the TGI (UACC-62 melanoma) of the same compound?
Its TGI is 4.88 µM.

What about the GI50 (HS 578T breast) of the same compound?
The GI50 was 1.91 µM.

And the TGI (HS 578T breast)?
The TGI was 4.66 µM.

What about the GI50 (CCRF-CEM leukemia) of the same compound?
The GI50 was 0.2 µM.

What about the TGI (CCRF-CEM leukemia) of the same compound?
Its TGI is greater than 100 µM.

And the GI50 (SF-268 CNS)?
The GI50 was 2.61 µM.

What about the TGI (SF-268 CNS) of the same compound?
The TGI was 7.8 µM.

And the GI50 (MDA-MB-435)?
The GI50 was 4.24 µM.

What about the TGI (MDA-MB-435) of the same compound?
The TGI was greater than 100 µM.

And the GI50 (786-0 renal)?
The GI50 was 3.62 µM.

What about the TGI (786-0 renal) of the same compound?
The TGI was 21.9 µM.

What about the GI50 (SW-620 colon) of the same compound?
The GI50 was 2.39 µM.

And the TGI (SW-620 colon)?
Its TGI is greater than 100 µM.

And the GI50 (SN12C renal)?
The GI50 was 1.71 µM.

What about the TGI (SN12C renal) of the same compound?
Its TGI is 3.69 µM.

What about the GI50 (OVCAR-8 ovarian) of the same compound?
The GI50 was 1.67 µM.

And the TGI (OVCAR-8 ovarian)?
The TGI was 4.77 µM.

And the GI50 (COLO 205 colon)?
The GI50 was 2.96 µM.

And the TGI (COLO 205 colon)?
The TGI was greater than 100 µM.

What about the GI50 (RPMI-8226 leukemia) of the same compound?
The GI50 was 3.71 µM.

What about the TGI (RPMI-8226 leukemia) of the same compound?
Its TGI is greater than 100 µM.

What about the GI50 (UO-31 renal) of the same compound?
Its GI50 is 0.358 µM.

And the TGI (UO-31 renal)?
Its TGI is greater than 100 µM.

What about the GI50 (IGROV1 ovarian) of the same compound?
Its GI50 is 1.03 µM.

What about the TGI (IGROV1 ovarian) of the same compound?
The TGI was 3.15 µM.

And the GI50 (TK-10 renal)?
The GI50 was 3.47 µM.

What about the TGI (TK-10 renal) of the same compound?
Its TGI is greater than 100 µM.

And the GI50 (BT-549 breast)?
The GI50 was 9.86 µM.

What about the TGI (BT-549 breast) of the same compound?
The TGI was greater than 100 µM.

And the GI50 (T-47D breast)?
Its GI50 is 1.24 µM.

And the TGI (T-47D breast)?
Its TGI is 4.51 µM.

What about the GI50 (SF-539 CNS) of the same compound?
Its GI50 is 1.79 µM.

What about the TGI (SF-539 CNS) of the same compound?
The TGI was 3.53 µM.

What about the GI50 (NCI-H226 lung) of the same compound?
The GI50 was 1.1 µM.

And the TGI (NCI-H226 lung)?
The TGI was 2.6 µM.

And the GI50 (MDA-MB-231 breast)?
The GI50 was 1.57 µM.

And the TGI (MDA-MB-231 breast)?
Its TGI is 3.58 µM.

What about the GI50 (HCT-15 colon) of the same compound?
Its GI50 is 2.93 µM.

And the TGI (HCT-15 colon)?
The TGI was greater than 100 µM.

What about the GI50 (KM12 colon) of the same compound?
Its GI50 is 2.87 µM.

And the TGI (KM12 colon)?
Its TGI is greater than 100 µM.

What about the GI50 (OVCAR-3 ovarian) of the same compound?
Its GI50 is 2.14 µM.

What about the TGI (OVCAR-3 ovarian) of the same compound?
The TGI was 5.3 µM.

And the GI50 (ACHN renal)?
The GI50 was 1.97 µM.

What about the TGI (ACHN renal) of the same compound?
Its TGI is 5.3 µM.

And the GI50 (A549 NSCLC)?
Its GI50 is 6.84 µM.

And the TGI (A549 NSCLC)?
Its TGI is greater than 100 µM.

What about the GI50 (SNB-75 CNS) of the same compound?
Its GI50 is 2.09 µM.

What about the TGI (SNB-75 CNS) of the same compound?
Its TGI is 7.99 µM.

And the GI50 (MOLT-4 leukemia)?
Its GI50 is 0.533 µM.

What about the TGI (MOLT-4 leukemia) of the same compound?
The TGI was greater than 100 µM.

What about the GI50 (PC-3 prostate) of the same compound?
The GI50 was 1.69 µM.

And the TGI (PC-3 prostate)?
Its TGI is 4.99 µM.

And the GI50 (HCC-2998 colon)?
Its GI50 is 3.39 µM.

What about the TGI (HCC-2998 colon) of the same compound?
The TGI was 45.6 µM.

And the GI50 (K-562 leukemia)?
Its GI50 is 3.66 µM.

What about the TGI (K-562 leukemia) of the same compound?
Its TGI is greater than 100 µM.

What about the GI50 (CAKI-1 renal) of the same compound?
The GI50 was 2.25 µM.

What about the TGI (CAKI-1 renal) of the same compound?
The TGI was greater than 100 µM.

What about the GI50 (SR leukemia) of the same compound?
Its GI50 is 4.47 µM.

What about the TGI (SR leukemia) of the same compound?
Its TGI is greater than 100 µM.

What about the GI50 (MDA-MB-468 breast) of the same compound?
The GI50 was 1.35 µM.

And the TGI (MDA-MB-468 breast)?
Its TGI is 3.06 µM.

What about the GI50 (MALME-3M melanoma) of the same compound?
Its GI50 is 1.42 µM.

What about the TGI (MALME-3M melanoma) of the same compound?
The TGI was 4.01 µM.

What about the GI50 (DU-145 prostate) of the same compound?
The GI50 was 3.21 µM.

What about the TGI (DU-145 prostate) of the same compound?
Its TGI is greater than 100 µM.

What about the GI50 (NCI-H23 lung) of the same compound?
Its GI50 is 1.75 µM.

And the TGI (NCI-H23 lung)?
Its TGI is 4.06 µM.

And the GI50 (SNB-19 CNS)?
Its GI50 is 2.17 µM.

And the TGI (SNB-19 CNS)?
The TGI was 6.04 µM.

What about the GI50 (HCT-116 colon) of the same compound?
Its GI50 is 3 µM.

What about the TGI (HCT-116 colon) of the same compound?
The TGI was greater than 100 µM.

What about the GI50 (UACC-257 melanoma) of the same compound?
Its GI50 is 6.09 µM.

And the TGI (UACC-257 melanoma)?
The TGI was greater than 100 µM.

What about the GI50 (SK-OV-3 ovarian) of the same compound?
The GI50 was 2.04 µM.

What about the TGI (SK-OV-3 ovarian) of the same compound?
Its TGI is 5.37 µM.

And the GI50 (HOP-62 NSCLC)?
Its GI50 is 1.58 µM.

What about the TGI (HOP-62 NSCLC) of the same compound?
The TGI was 3.52 µM.

And the GI50 (A498 renal)?
Its GI50 is 2.02 µM.

And the TGI (A498 renal)?
Its TGI is 3.54 µM.

What about the GI50 (EKVX NSCLC) of the same compound?
The GI50 was 3.99 µM.

And the TGI (EKVX NSCLC)?
The TGI was greater than 100 µM.

What about the GI50 (LOX IMVI melanoma) of the same compound?
The GI50 was 1.43 µM.

And the TGI (LOX IMVI melanoma)?
The TGI was 2.77 µM.

What about the GI50 (HL-60(TB) leukemia) of the same compound?
The GI50 was greater than 100 µM.

What about the TGI (HL-60(TB) leukemia) of the same compound?
Its TGI is greater than 100 µM.

What about the GI50 (SK-MEL-5 melanoma) of the same compound?
Its GI50 is 3.72 µM.

And the TGI (SK-MEL-5 melanoma)?
The TGI was greater than 100 µM.

And the GI50 (SK-MEL-2 melanoma)?
The GI50 was 2.21 µM.

And the TGI (SK-MEL-2 melanoma)?
The TGI was 6.17 µM.

And the GI50 (MCF7 breast)?
The GI50 was 0.877 µM.

What about the TGI (MCF7 breast) of the same compound?
Its TGI is 3.32 µM.

What about the GI50 (M14 melanoma) of the same compound?
Its GI50 is 3.16 µM.

What about the TGI (M14 melanoma) of the same compound?
The TGI was greater than 100 µM.

And the GI50 (HOP-92 NSCLC)?
Its GI50 is 1.59 µM.

And the TGI (HOP-92 NSCLC)?
The TGI was 4.52 µM.
